From patent US20130142830A1, “Tolerogenic Plasmacytoid Dendritic Cells Co-Expressing Cd8-Alpha And Cd8-Beta And Methods Of Inducing The Differentiation Of Regulatory T Cells Using Same” (UNIVERSITY OF SOUTHERN CALIFORNIA, priority 2011, published 2013)

Tests used:
[1] = test system: naive OVA-specific CD4+ T cells; experiment: In vitro co-culture of pDC subsets with naive OVA-specific CD4+ T cells, Foxp3 and IL-10 by flow cytometry; type: cell-based, mouse
Description: (a) Flow cytometry of intracellular expression of Foxp3 in CD4^+ T cells cultured with CD8α^− CD8β^− pDCs, CD8α^+ CD8β^− or CD8α^+ CD8β^+ pDCs. Sorted CD8α^− CD8β^−, CD8α^+ CD8β^− or CD8α^+ CD8β^+ pDCs were preincubated 12 hours with either medium or Galectin-3 (10 μg/ml). Cells were then washed and co-cultured with OVA-specific CD4^+ T cells at a 1:10 ratio (pDC:T CD4^+) for 5 days in presence of either OVA323-339 (1 μg/ml) and/or TGF-β (1 ng/ml) as indicated. Cells were subsequently stained with CD3, CD4 and CD25 antibodies fixed, permeabilized and stained with an anti-Foxp3 antibody before flow cytometry analysis. […]
(a) Gene expression of Aldhla1 Aldhla2, and Aldhla3 was assessed by real-time PCR in CD8α^−β^−, CD8α^+β^−, and CD8α^+β^+ pDCs from peripheral lymph nodes or in CD103^− and CD103^+ DCs from mesenteric lymph nodes of Fms-like tyrosine kinase 3-ligand (Flt3-L)-treated mice. […] P-values were calculated with Student's t-test. *P-value <0.05 (CD8α^+β^− pDC and CD8α^+β^+ pDC compared to CD8α^−β^−). ^#P-value <0.05 (CD103^+ cDC compared to CD103^− cDC). […] Cells were subsequently stained with anti-CD11c, anti-mPDCA1, anti-CD8α, and CD8αβ antibodies, and analyzed by flow cytometry to detect RALDH activity. […] Foxp3 expression was analyzed among CD3^+ CD4^+ CD25^+ cells; dot plots are representative of three independent experiments. […]

[2] = test system: pDCs; experiment: TLR7/TLR9 stimulation of pDC subsets (R848, CpG): co-stimulatory molecules, CD8 expression, IFN-α and IL-10 ELISA; type: cell-based, mouse; conditions: R848 10 μg/ml or CpG 10 μM, 18 hours
Description: (a) Plasmacytoid DCs were isolated by magnetic separation from lymph nodes of Flt3L-treated mice. The surface expression of the costimulation molecules CD80 and CD86 was assessed on CD8α^− CD8β^− pDCs, CD8α^+ CD8β^− pDCs and CD8α^+ CD8β^+ pDCs subtypes after 18 hours of stimulation with R848 (10 μg/ml) or CpG (10 μM). Data are representative of three similar experiments. Shaded histograms represent isotype control antibodies; dashed lines, specific staining of untreated cells; solid black lines, specific staining of CpG treated cells and solid grey lines, specific staining of R848 treated cells. […] Cells were then washed and stained with CD8α and CD8β^− antibodies, APC fluorescence was analyzed by flow cytometry in the CD8α^− CD8β^− pDCs, CD8α^+ CD8β^− pDCs or CD8α^+ CD8β^+ pDCs subpopulations. […] Data are average (mean fluorescence intensity (MFI) at 37° C.)−(MFI at 4° C.)±SEM of three separate experiments. […] The amount of radioactivity related to the number of cells was evaluated in a scintillation counter. […]
The main function of DCs is to prime naïve T cells by presenting antigen and providing additional signals through co-stimulatory molecules and production of cytokines. To address whether the populations of pDCs described herein differ in these functions, we stimulated them with TLR ligands and assessed the expression of co-stimulatory molecules along with the cytokine production. […]

[3] = test system: DCs; experiment: In vivo expansion of DCs by Flt3L-expressing tumor cells; parameters: species or system mouse; conditions: Flt3L treatment of BALB/c mice
Description: To test whether an in vivo expansion of the population of DCs affects the expression of CD8α or CD8β at the surface of pDCs, tumor cells expressing Flt3L were transferred into BALB/c mice. Flt3L acts on hematopoietic stem cells and controls their differentiation into DCs, this treatment expands the population of DCs by 15 to 20 fold after 14 days without activating the cells. […] The expression of CD8α and CD8β was assessed simultaneously on pDCs (CD11c^+ BST2^+ cells) and on conventional DCs (cDCs, CD11c^+ BST2^− cells). At the surface of cDCs, only CD8α expression was detected (FIG. 2a). […] Accordingly, with the surface phenotype, CD8α gene expression was detected in CD8α^+β^− pDCs while both CD8α and CD8β genes were overexpressed in the CD8α^+β^+ subset (FIG. 2b). As expected CD8β gene expression was never detected in cDCs (FIG. 2b). […] Our data from B2m knockout mice confirmed the presence of CD8α or CD8β pDC repertoire, similar to the level detected in the wild type mice (FIG. 2c). To further assess the expression of CD8α or CD8β at mRNA level, we performed real time quantitative PCR on the sorted subpopulation of pDCs from B2m knockout mice and confirmed the results obtained in FIG. 2c at the mRNA expression level (FIG. 2d). […]

CN1c2cc3c(cc2N=C(c2ccc(C(=O)O)cc2)c2ccc4ccccc4c21)C(C)(C)CCC3(C)C [LE540]
effect of RALDH inhibitor on conversion of naive CD4+ T cells by CD8α+β+ and CD8α+β− pDCs ([1]; LE540 1 μM with TGF-β): completely blocked the conversion of naïve CD4^+ T cells

CCOCc1nc2c(N)nc3ccccc3c2n1CC(C)(C)O [R848]
expression of CD8α and CD8β on pDCs following TLR stimulation [2]: the expression of CD8α and CD8β decreases

Galectin-3
effect of Galectin-3 pre-incubation of pDCs on conversion of naive CD4+ T cells into Foxp3-expressing cells ([1]; Galectin-3 10 μg/ml, 12 hours pre-incubation, TGF-β present): boost the capacity of pDCs to convert naïve CD4^+ T cells into Foxp3-expressing cells

B1: Flt3L: delivered by tumor cells expressing Flt3L; controls differentiation of hematopoietic stem cells into DCs (protein, UniProt P49771 27-235, looked up)
Fms-related tyrosine kinase 3 …: TQDCSFQHSPISSDFAVKIRELSDYLLQDYPVTVASNLQDEELCGGLWRLVLAQRWMERLKTVAGSKMQGLLERVNTEIHFVTKCAFQPPPSCLRFVQTNISRLLQETSEQLVALKPWITRQNFSRCLELQCQPDSSTLPPPWSPRPLEATAPTAPQPPLLLLLLLPVGLLLLAAAWCLHWQRTRRRTPRPGEQVPPVPSPQDLLLVEH
level of expression of CD8α and CD8β on pDCs [3]: does not significantly affect
